Measured values taken from US7863315B2, “2-indolinone derivatives as selective histone deacetylase inhibitors” (Shenzhen Chipscreen Biosciences, Ltd., priority 2008, dated 2011).

How the values were obtained:
Assay type in all cases: cell-based
[1] = target: T1, HDAC6 (α-tubulin acetylation) (Homo sapiens, UniProt Q9UBN7); assay: ELISA assay of acetylation of α-tubulin in HeLa cells; conditions: M-HeLa, 24 hours
T1 construct: endogenous in cells; host or cells: HeLa
T1 sequence (Q9UBN7 1-1215): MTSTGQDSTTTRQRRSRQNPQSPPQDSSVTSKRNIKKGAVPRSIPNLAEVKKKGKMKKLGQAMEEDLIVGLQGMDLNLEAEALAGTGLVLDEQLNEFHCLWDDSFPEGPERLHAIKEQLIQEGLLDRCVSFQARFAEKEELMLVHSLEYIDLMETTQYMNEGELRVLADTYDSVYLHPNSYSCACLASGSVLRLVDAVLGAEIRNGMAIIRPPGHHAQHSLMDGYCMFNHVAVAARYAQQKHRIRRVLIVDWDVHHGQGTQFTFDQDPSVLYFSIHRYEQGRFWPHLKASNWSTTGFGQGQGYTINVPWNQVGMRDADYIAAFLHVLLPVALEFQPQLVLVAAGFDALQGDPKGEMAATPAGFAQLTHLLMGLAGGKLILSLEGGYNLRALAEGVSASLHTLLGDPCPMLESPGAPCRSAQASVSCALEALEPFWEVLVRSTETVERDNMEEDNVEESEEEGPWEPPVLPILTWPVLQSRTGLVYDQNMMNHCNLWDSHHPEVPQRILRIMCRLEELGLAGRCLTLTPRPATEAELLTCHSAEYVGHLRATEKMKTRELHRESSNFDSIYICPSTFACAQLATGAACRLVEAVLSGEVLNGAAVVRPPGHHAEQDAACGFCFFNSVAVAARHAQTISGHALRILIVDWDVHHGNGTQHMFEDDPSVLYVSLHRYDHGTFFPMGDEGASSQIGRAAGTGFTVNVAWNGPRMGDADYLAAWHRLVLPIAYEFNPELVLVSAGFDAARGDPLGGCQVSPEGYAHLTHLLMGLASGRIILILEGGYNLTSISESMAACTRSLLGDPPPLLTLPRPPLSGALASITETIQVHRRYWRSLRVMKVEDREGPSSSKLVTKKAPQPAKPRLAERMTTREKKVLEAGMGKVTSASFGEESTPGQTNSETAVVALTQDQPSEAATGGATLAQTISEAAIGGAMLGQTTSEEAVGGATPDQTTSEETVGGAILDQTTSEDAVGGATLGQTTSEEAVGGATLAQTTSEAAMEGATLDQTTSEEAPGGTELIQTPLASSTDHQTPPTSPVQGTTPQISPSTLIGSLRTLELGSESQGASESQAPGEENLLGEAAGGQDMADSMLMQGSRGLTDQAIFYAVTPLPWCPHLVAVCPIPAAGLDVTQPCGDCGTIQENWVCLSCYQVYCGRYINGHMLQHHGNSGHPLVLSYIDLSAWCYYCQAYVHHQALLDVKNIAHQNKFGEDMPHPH
Description: Measurement of acetylation activity in cells on substrates:
ELISA assay of acetylation of α-tubulin
This assay is used to measure in vivo inhibition of HDAC6 in a cytoblot assay. Materials and Reagent: • 1. 24-well tissue culture • 2. DMEM Medium containing 10% FBS • 3. 96-well white plate • 4. HeLa cell line • 5. M-PER Mammalian Protein Extraction Reagent (Pierce) • 6. Bradford assay reagent • 7. Anti-acetyl-tubulin (Upstate) • 8. HRP-labeled anti-mouse IgG (Upstate) • 9. Coating Buffer: 15 mM Na2CO3, 35 mM NaHCO3 (pH 9.6) • 10. 10×PBS: 0.58 M Na2HPO4, 0.17M NaH2PO4, 0.68M NaCl (pH 7.4) • 11. Wash Buffer:1×PBS containing 0.05% Tween-20 (PBST) • 12. Blocking Buffer:10 mg/ml bocine serum albumin (BSA) in PBS • 13. Antibody Dilution Buffer: 5 mg/ml BSA in PBST • 14. Enhanced chemiluminescence (ECL) (Amersham)
Procedure for performing the assay in 96-well plate: • 1. HeLa cells were seeded at a density of 60000 cells/500 μl/well in 24-well plate and incubated at 37° C. for 24 hours. • 2. Compounds were added and incubated for 24 hours at 37° C. • 3. Culture medium was removed, then washes the cells twice with ice-cold PBS. • 4. Add 100 μl/well of Protein Extraction Reagent and gently shake the mixture for 5 minutes. • 5. Collect the lysate to a 96-well plate respectively. Determine the concentration of protein by Bradford assay. • 6. Coat the wells of a 96-well white plate with 100 μl/well of 2.5 μg whole cell protein in Coating Buffer by incubating overnight at 4° C. • 7. Discard the uncoated proteins and wash the coated wells three times with 200 μl/well of PBST. • 8. Block coated wells by incubating the plate with 200 μl/well of Blocking Buffer for 1 hour at 37° C. • 9. Wells were aspirated and washed three times with 200 μl/well of PBST. • 10. After aspirating, 50 μl/well of Antibody Dilution Buffer containing anti-Ac-tubulin (1:1000) were added to each well and incubated for 2 hour at 37° C. • 11. Wells were aspirated and washed three times with 200 μl/well of PBST. • 12. 50 μl/well of Antibody Dilution Buffer containing HRP-labeled anti-mouse IgG (1:2000) were added to each well and incubated for 2 hour at 37° C. • 13. Wells were aspirated and washed three times with 200 μl/well of PBST. • 14. Wells were washed three times with 200 μl/well of purified water. • 15. Add 50 μl/well of ECL mixture, then read the plates on the plate reader.

[2] = tested on: HDAC7 (Nur77 reporter gene); assay: HDAC subtype reporter gene assay, Nur77-promoter luciferase in HeLa cells; conditions: Homo sapiens, M-HeLa, read-out: % of SAHA Response for HDAC7 at 10 μM (Nur77 reporter gene), 24 hours
Description: (§1) Measurement of inhibition of HDAC subtypes activity in cells by reporter gene assay: HDAC subtype selectivity inhibition assay of tested compounds was carried out by several reporter gene assays experiments. Briefly, HeLa cells were seeded in 96-well plates the day before transfection to give a confluence of 50-80%. Cells were transfected with one of reporter gene plasmids containing a promoter sequences or response elements upstream of a luciferase gene construct using FuGene6 transfection reagent according to the manufacturer's instructions (Roche). The promoters or response elements including p21-promoter, gdf11-promoter, MEF-binding element (MEF2), Nur77-promoter were fused upstream to the luciferase gene reporter construct. For normalizing the transfection efficiency, a GFP expression plasmid was cotransfected. Cells were allowed to express protein for 24 hours followed by addition of individual compounds or the vehicle (DMSO). 24 hours later, the cells were harvested and the luciferase assays were performed using the luciferase assay kit according to the manufacturer's instructions (Promega). To normalize the data from the luciferase assays, GFP activity from transfected cells was measured in a microtiter-plate reading fluorimeter capable of excitation at a wavelength at 485 nm and detection of emitted light at 527 nm.

[3] = tested on: HDAC3 (gdf11 reporter gene); assay: HDAC subtype reporter gene assay, gdf11-promoter luciferase in HeLa cells; conditions: Homo sapiens, M-HeLa, read-out: % of SAHA Response for HDAC3 at 10 μM (gdf11 reporter gene), 24 hours
Description: as §1

| Structure (SMILES) | fold induction at 10 µM [1] | Emax at 10 µM [2] [%] | Emax at 10 µM [3] [%] |
| --- | --- | --- | --- |
| O=C(CCCCCNC(=O)c1ccc(/C=C2\C(=O)Nc3ccc(F)cc32)cc1)NO [Example 41, 6-(4-((5-fluoro-2-oxoindolin-3-ylidene)methyl)benzamido)-N-hydroxyhexanamide] | 1.47 | 4 | 11 |
| Nc1ccccc1NC(=O)CCCCCNC(=O)c1cccc(/C=C2\C(=O)Nc3ccc(F)cc32)c1 [Example 44, 6-(3-((5-fluoro-2-oxoindolin-3-ylidene)methyl)benzamido)-N-(2-aminophenyl)hexanamide] | 2.66 | 35 | 48 |
| Nc1cc(F)ccc1NC(=O)CCCCCNC(=O)c1cccc(/C=C2\C(=O)Nc3ccc(F)cc32)c1 [Example 45, 6-(3-((5-fluoro-2-oxoindolin-3-ylidene)methyl)benzamido)-N-(2-amino-4-fluorophenyl)hexanamide] | 1.64 | 16 | 12 |
| O=C(CCCCCNC(=O)c1cccc(/C=C2\C(=O)Nc3ccc(F)cc32)c1)NO [Example 46, 6-(3-((5-fluoro-2-oxoindolin-3-ylidene)methyl)benzamido)-N-hydroxyhexanamide] | 2.07 | 4 | 10 |
| Nc1ccccc1NC(=O)CCCCNC(=O)c1cccc(/C=C2\C(=O)Nc3ccc(F)cc32)c1 [Example 49, 5-(3-((5-fluoro-2-oxoindolin-3-ylidene)methyl)benzamido)-N-(2-aminophenyl)pentanamide] | 2.39 | 8 | 11 |
| Nc1cc(F)ccc1NC(=O)CCCCNC(=O)c1cccc(/C=C2\C(=O)Nc3ccc(F)cc32)c1 [Example 50, 5-(3-((5-fluoro-2-oxoindolin-3-ylidene)methyl)benzamido)-N-(2-amino-4-fluorophenyl)pentanamide] | 1.97 | 12 | 4 |
| O=C(CCCCNC(=O)c1cccc(/C=C2\C(=O)Nc3ccc(F)cc32)c1)NO [Example 51, 5-(3-((5-fluoro-2-oxoindolin-3-ylidene)methyl)benzamido)-N-hydroxypentanamide] | 1.97 | 3 | 12 |
| Nc1ccccc1NC(=O)CCCCCCCNC(=O)c1cccc(/C=C2\C(=O)Nc3ccc(F)cc32)c1 [Example 54, 8-(3-((5-fluoro-2-oxoindolin-3-ylidene)methyl)benzamido)-N-(2-aminophenyl)octanamide] | 2.91 | 25 | 52 |
| Nc1cc(F)ccc1NC(=O)CCCCCCCNC(=O)c1cccc(/C=C2\C(=O)Nc3ccc(F)cc32)c1 [Example 55, 8-(3-((5-fluoro-2-oxoindolin-3-ylidene)methyl)benzamido)-N-(2-amino-4-fluorophenyl)octanamide] | 1.49 | 9 | 6 |
| O=C(CCCCCCCNC(=O)c1cccc(/C=C2\C(=O)Nc3ccc(F)cc32)c1)NO [Example 56, 8-(3-((5-fluoro-2-oxoindolin-3-ylidene)methyl)benzamido)-N-hydroxyoctanamide] | 2.66 | 27 | 56 |
